Here are results for 5 molecules from publication PMC6630718, “Discovery of Novel UV-Filters with Favorable Safety Profiles in the 5-Arylideneimidazolidine-2,4-dione Derivatives Group” (Molecules, 2019).

Where two headings read alike, the source gives them in different places.

A short description of series [1]: In vitro photoprotection study of 2% (w/w) macrogol formulations on PMMA plates. An excerpt: The composition of formulations and concentration of tested compounds were based on their limited solubility. N-monosubstituted compounds 2a–2e were insoluble at desirable concentrations in the typical solvents used in cosmetic formulations such as alcohols, triacetin, surfactants, and co-surfactants. To dissolve compounds 2a and 2b before incorporation to the formulation DMSO: Tween 20 (1:9 w/w) was used, for less soluble 2c–2e it was necessary to use DMSO alone as solvent. […] Thus the detailed composition of the formulations is as follows: F1–Tween 20 43.2%, PEG-400 25%, PEG-1500 25%, Triacetin 4.8%, tested compound 2%; F2–Tween 20 43.2%, PEG-400 25%, PEG-1500 25%, DMSO 4.8%, tested compound 2%; F3–PEG-400 25%, PEG-1500 25%, DMSO 48%, tested compound 2%. Considering the disadvantages of currently reported macrogol formulations and the low concentration achieved for the tested compounds (2%), we plan to work on cosmetic emulsions containing the most promising derivatives at higher concentrations as well as required excipients including preservatives, antioxidants, etc. This research will be carried out in the near future.
Tested compounds and commercial UV filters as reference standards were incorporated to a neutral macrogel formulation in the concentration of 2%. Prior to the incorporation, compounds 3a–3e and 4f–4h and reference UV-filters were dissolved in a triacetin:Tween 20 (1:9) solvent system. For compounds 2a–2e it was necessary to use DMSO. The final composition of the macrogol formulations is presented in the photoprotective activity section.
In vitro photoprotection study was performed according to EN ISO 24443:2012 [71] with slight modifications. Formulation with tested compound (32.5 mg) was applied on a polymethylmethacrylate plate (PMMA) with the application area 25 cm^2 and 5 µm roughness value to simulate the skin surface (Schonberg GmbH, Hamburg, Germany). As a reference a PMMA plate treated with approximately 15 µL of glycerin was used. Measurements were carried out by reflectance spectrophotometry with SPF-290AS Analyser (Solar Light Company, Glenside, PA, USA) equipped with integrating sphere controlled by WinSPF version X.X. software. For each sample two plates were prepared, absorbance measures were performed on 6 different positions of the plate from 290 to 400 nm with 1 nm steps. The results were expressed as an average of data from 12 scans.

Series [2] can be described thus: Photostability in macrogol formulations on PMMA plates (solar light simulator). The format is physicochemical. The note with it: for decrease of AUC after irradiation: macrogol formulation F1; for percentage of photoproducts content: post-irradiation chromatograms. On the procedure: After irradiation of thin layer of formulations applied on PMMA plates, their photoprotective parameters were determined and compared with the pre-irradiation results. The study gives an overview on functional photostability of the tested compounds. It is an important test, because the photostability of some compounds in low concentrated solutions may meaningfully differ from results obtained for higher concentrations used in sunscreen products. […] In the present study both UVB and UVA-absorbers were tested, so the changes in SPFin vitro, UVA PF and AUC after irradiation are taken into account as a measure of photostability.
(§1) The photostability evaluation of compounds was performed both in methanol solutions and in macrogol formulations. Irradiation of samples according to previous studies was conducted for 1 h at 500 W/m^2 (cumulative dose of ultraviolet radiation 218 kJ/m^2) with solar light simulator (Suntest CPS+, Atlas, Linsengericht, Germany) equipped with an optical filter cutting off wavelengths shorter than 290 nm and IR-block filter to neutralize thermal effects. The UV absorption spectrum of the samples were analysed post-irradiation and compared with pre-irradiation results. UPLC-MS/MS analyses were also performed.
(§2) Methanol solutions were tested at concentration 25 or 50 µM in quartz cuvettes with the PTFE stopper to prevent evaporation or leaking of the solvent. Macrogol formulations (2% w/w) were tested on PMMA plates (1.3 mg/cm^2). After post-irradiation measure of UV absorption, exposed and unexposed plates were washed with 5 mL of methanol, then mixtures were filtered and analysed by UPLC-MS/MS. All analyses were performed in duplicates.

Series [3] is described as follows: In vitro stability in mouse liver microsomes. The series is classed as in vitro ADME. The note with it: mouse liver microsomes; for half-life at 20 µM / microsomal CLint at 20 µM: mouse; for microsomal CLint at 20 µM: calculated from t1/2. The procedure: Mouse liver microsomes (MLMs) were used to investigate the phase I metabolism of selected compounds (2c, 2d, 3b, 4g, 5a) and the reference substance BP-2. Samples composed of test compound (20 µM), MLMs (0.8 mg/mL) and potassium phosphate buffer (100 mM, pH 7.4) were preincubated prior to addition of NADPH-regenerating system. NADPH-regenerating system contained NADP, glucose-6-phosphate, glucose-6-phosphate dehydrogenase and potassium phosphate buffer (100 mM, pH 7.4). Control incubations were performed in the absence of the NADPH-regenerating system and in case of esters (2c, 2d, 3b and 4g) without the mouse liver microsomes solution to determine spontaneous hydrolysis. Incubations were conducted at 37 °C for at least 15 min up to 60 min. The reactions were stopped by the addition of 250 μL ice-cold methanol containing internal standard PTX (20 μM). The mixture was then centrifuged. Supernatant analysis was performed using UPLC/MS (Waters Corporation). The assays were repeated two times. The in vitro half times (t1/2) for test compounds were determined from the slope of the linear regression of ln % parent compound remaining versus incubation time. The calculated t1/2 was incorporated into the following equation to obtain intrinsic clearance: (Clint) = (volume of incubation [µL]/ protein in the incubation [mg]) × 0.693 / t1/2 [74].

A short description of series [4]: Ultraviolet spectroscopy in methanol solutions. The series is classed as physicochemical. The following applies: for Absorption Range: scan range 290–400 nm. The procedure: Spectra with a scan range of 290–400 nm were recorded in 50 or 25 μM methanol solutions, in 1 cm path length, 1.5 mL quartz cuvettes on a U-2800 double beam spectrophotometer (Hitachi, Tokyo, Japan) controlled by UV Solution version 2.2 software. The molar extinction coefficient at maximum absorption (εmax) of tested compounds was determined in methanol as the slope of the linear regression of absorbance vs. concentration of tested compound (from 10 to 50 μM or 2.5 to 30 μM).

Series [5] in a line: Photostability in methanol solutions (solar light simulator). The note with it: methanol solution; for % of initial AUC post-irradiation / λmax post-irradiation: 1h irradiation at 500 W/m2. The series is classed as physicochemical. Also on record: λmax pre-irradiation: unit not given beside the values. On the procedure:
as §1, §2

Where [6] appears, read: 2% (w/w) macrogol formulation F3 (DMSO 48%).
[7] abbreviates: after 1 h irradiation at 500 W/m^2, formulation F3 (DMSO 48%).
Setting [8] is: pH 7.4, mouse liver microsomes 0.8 mg/mL, 20 µM compound, NADPH-regenerating system, 37 °C, read-out: t ½.
Where [9] appears, read: 2% (w/w) macrogol formulation F1 (Triacetin 4.8%).
Where [10] appears, read: 2% (w/w) macrogol formulation F1 (Tween 20, PEG-400, PEG-1500, Triacetin 4.8%).
[11] abbreviates: after 1 h irradiation at 500 W/m^2, formulation F1.

The term melting point denotes the temperature of the solid-liquid transition. In general, microsomal CLint refers to the capacity of the preparation to metabolise the compound, expressed as a volume cleared per time. In turn, `CCOC(=O)CN1C(=O)N/C(=C\c2ccc(OCC)cc2)C1=O` [Compound 2c, Ethyl (Z)-2-(4-(4-ethoxybenzylidene)-2,5-dioxoimidazolidin-1-yl)acetate] showed a melting point of 181 to 182 °C. In series [1] (setting [6]), the SPFin vitro stood at 3.16 ± 0.05, the “UVA PF” value was found to be 4.68 ± 0.02, the “UVA/UVB Ratio” value was determined as 1.36 ± 0.01 and the λc (critical wavelength) amounted to 367 nm. Further, in series [2] (setting [7]), the “% of Initial AUC” value is reported as 34.13%, the “% of Initial SPFin vitro” value is 44.37% and the “% of Initial UVA PF” value was 35.83%. For the same molecule, the “Probable Transformation” value in series [3] is on record as “O-dealkylation”. Also, in series [3] (setting [8]), the half-life at 20 µM is 0.55 h. For the same molecule, the microsomal CLint at 20 µM in series [3] (pH 7.4, mouse liver microsomes) is 52 µL/min/mg. In series [4], the εmax was 35610 M⁻¹ cm⁻¹, the λmax amounted to 336 nm and the “Absorption Range” value is on record as 290–376 nm. Also, in series [5], the λmax pre-irradiation is given as 336, the “% of initial AUC post-irradiation” value is 96.89% and the λmax post-irradiation was 344.
For `CCOC(=O)CN1C(=O)/C(=C/c2ccc(OC)c(OC)c2)N(CC(=O)OCC)C1=O` [Compound 3e, Diethyl 2,2′-((Z)-4-(3,4-dimethoxybenzylidene)-2,5-dioxoimidazolidine-1,3-diyl)diacetate], the melting point lay within 80 to 82 °C. In series [1] (setting [9]), the “UVA PF” value is recorded as 2.17 ± 0.11, the “UVA/UVB Ratio” value came out at 1.43 ± 0.02 and the λc (critical wavelength) worked out at 382 nm. In addition, the SPFin vitro in series [1] (setting [10]) was found to be 1.87 ± 0.08. Also, in series [2] (setting [11]), the “% of Initial AUC” value is 79.59%, the “% of Initial SPFin vitro” value was 81.28% and the “% of Initial UVA PF” value was 87.10%. For the same molecule, in series [4], the εmax is 14200 M⁻¹ cm⁻¹, the λmax was determined as 329 nm and the “Absorption Range” value is on record as 290–380 nm. Further, in series [5], the λmax pre-irradiation is on record as 329, the “% of initial AUC post-irradiation” value is given as 129.32% and the λmax post-irradiation is 340.
Consider `CCOC(=O)CN1C(=O)/C(=C/C=C/c2ccccc2)N(CC(=O)OCC)C1=O` [Compound 4f, Diethyl 2,2′-((Z)-2,4-dioxo-5-((E)-3-phenylallylidene)imidazolidyne-1,3-diyl)diacetate], for which the melting point fell in the range of 99 to 100 °C. Besides, in series [1] (setting [9]), the “UVA PF” value is on record as 8.43 ± 1.35, the “UVA/UVB Ratio” value is given as 2.58 ± 0.06 and the λc (critical wavelength) was 381 nm. In series [1] (setting [10]), this molecule had an SPFin vitro of 2.51 ± 0.17. In addition, in series [2] (setting [11]), the “% of Initial AUC” value is 27.92%, the “% of Initial SPFin vitro” value was 62.24% and the “% of Initial UVA PF” value is given as 25.98%. For the same molecule, in series [2] (macrogol formulation), the “photostability (in words)” value is reported as “unsatisfactory” and the “percentage of photoproducts content” value is listed as 22.9%. The “decrease of AUC after irradiation” value in series [2] was 72.1%. Further, in series [4], the εmax was 41477 M⁻¹ cm⁻¹, the λmax was determined as 354 nm and the “Absorption Range” value was 295–389 nm. In series [5], the “decrease of AUC after irradiation” value is on record as 40.9%, the λmax pre-irradiation is recorded as 354, the “% of initial AUC post-irradiation” value is reported as 59.12% and the λmax post-irradiation is 354.
On to `CCOC(=O)CN1C(=O)/C(=C/C=C/c2ccccc2OC)N(CC(=O)OCC)C1=O` [Compound 4h, Diethyl 2,2′-((Z)-4-((E)-3-(2-methoxyphenyl)allylidene)-2,5-dioxoimidazolidine-1,3-diyl)diacetate], for which the melting point lay in the range of 134 to 135 °C. In series [1] (setting [9]), the “UVA PF” value was 4.28 ± 0.02, the “UVA/UVB Ratio” value is listed as 2.58 ± 0.01 and the λc (critical wavelength) came to 389 nm. The molecule also gave an SPFin vitro in series [1] (setting [10]) of 1.94 ± 0.04. Besides, in series [2] (setting [11]), the “% of Initial AUC” value is 69.19%, the “% of Initial SPFin vitro” value was 82.22% and the “% of Initial UVA PF” value was 62.38%. Moreover, the “decrease of AUC after irradiation” value in series [2] is 30.8%. Further, the “percentage of photoproducts content” value in series [2] (macrogol formulation) is on record as 11.0%. For the same molecule, in series [4], the εmax was 34987 M⁻¹ cm⁻¹, the λmax came to 370 nm and the “Absorption Range” value is 290–400 nm. Besides, in series [5], the “decrease of AUC after irradiation” value is reported as 1.5%, the λmax pre-irradiation is given as 370, the “% of initial AUC post-irradiation” value was 98.55% and the λmax post-irradiation was 370.
In turn, `O=C(O)CN1C(=O)N/C(=C\c2ccccc2)C1=O` [Compound 5a, (Z)-2-(4-Benzylidene-2,5-dioxoimidazolidin-1-yl)acetic acid] yielded a melting point of 215 to 217 °C. For the same molecule, the half-life at 20 µM in series [3] (setting [8]) was 23.1 h. The microsomal CLint at 20 µM in series [3] (pH 7.4, mouse liver microsomes) was below 1 µL/min/mg. The half-life at 20 µM in series [3] (pH 7.4, mouse liver microsomes, read-out: t1/2) is above 23 h. Also, in series [4], the εmax came out at 27310 M⁻¹ cm⁻¹, the λmax is listed as 316 nm and the “Absorption Range” value is 290–346 nm.
